This assay has as its system humans having risk factors for atherosclerosis. Kind of assay: Example 4: double-blinded, randomized comparative study of treating elevated cholesterol levels. The conditions noted are these: at eight weeks, versus baseline. The assay is classed as in vivo, human. As for the experimental part: A comparative study is executed to determine the effects of methods of treating elevated cholesterol levels comprising administration of each of: Test Sample 1, simvastatin (20 mg) in conjunction with fruit juice; Test Sample 2, simvastatin (10 mg) in conjunction with fruit juice; and Test Sample 3, simvastatin (10 mg) in conjunction with psyllium (15 grams) and fruit juice.
The study is a double-blinded, randomized comparison. Sixty humans, aging from about 30 to about 80 years, are utilized for the study, all of which are determined as having risk factors for atherosclerosis. The humans are randomized to three treatment groups (Treatment Group 1, Treatment Group 2, and Treatment Group 3). Each human stops any lipid-lowering treatment, and baseline lipid levels are obtained.
Treatment Group 1 receives Test Sample 1; Treatment Group 2 receives Test Sample 2; and Treatment Group 3 receives Test Sample 3; all over an eight week period. Test Sample 1 is administered as a concurrent administration once daily. Test Sample 2 is administered as a concurrent administration once daily. For Test Sample 3, 15 grams of psyllium is divided over three daily doses, each with fruit juice, wherein the last administered dose per day is concurrently administered with the simvastatin.
At eight weeks, levels of LDL-cholesterol, total cholesterol, and triglycerides are measured. Triglycerides are found not to be influenced based upon treatment group. However, on average, LDL-cholesterol and total cholesterol is decreased by approximately 29% in Treatment Group 1, LDL-cholesterol and total cholesterol is decreased by approximately 33% in Treatment Group 2, and LDL-cholesterol and total cholesterol is decreased by approximately 38% in Treatment Group 3.

The results in this text go back to US20120282359A1, “Compositions, Kits, and Methods for the Treatment of Conditions Associated with Elevated Cholesterol Levels” (priority 2003, published 2012).

For the molecule `CCC(C)(C)C(=O)O[C@H]1C[C@@H](C)C=C2C=C[C@H](C)[C@H](CC[C@@H]3C[C@@H](O)CC(=O)O3)[C@H]21` [Test Sample 1, simvastatin], the “LDL-cholesterol decreased, on average” value is on record as “approximately 29%” and the “total cholesterol decreased, on average” value is listed as “approximately 29%”.

With `CCC(C)(C)C(=O)O[C@H]1C[C@@H](C)C=C2C=C[C@H](C)[C@H](CC[C@@H]3C[C@@H](O)CC(=O)O3)[C@H]21` [Test Sample 2, simvastatin], the “LDL-cholesterol decreased, on average” value is recorded as “approximately 33%” and the “total cholesterol decreased, on average” value is listed as “approximately 33%”.
